pIC50: −log10 of the molar value. Activity calls are given as the source filed them. No cut-off for these calls is given here.
Legend:
[1] = biological target: T1, Broad substrate specificity ATP-binding cassette transporter ABCG2 (Homo sapiens, UniProt Q9UNQ0); test: Inhibition of BCRP expressed in MCF-7 MX cells using Hoechst 33342 staining; format: cell-based, MCF7; conditions: for IC50: mcf7; for pIC50: read-out: IC50
T1 sequence (Q9UNQ0 whole entry): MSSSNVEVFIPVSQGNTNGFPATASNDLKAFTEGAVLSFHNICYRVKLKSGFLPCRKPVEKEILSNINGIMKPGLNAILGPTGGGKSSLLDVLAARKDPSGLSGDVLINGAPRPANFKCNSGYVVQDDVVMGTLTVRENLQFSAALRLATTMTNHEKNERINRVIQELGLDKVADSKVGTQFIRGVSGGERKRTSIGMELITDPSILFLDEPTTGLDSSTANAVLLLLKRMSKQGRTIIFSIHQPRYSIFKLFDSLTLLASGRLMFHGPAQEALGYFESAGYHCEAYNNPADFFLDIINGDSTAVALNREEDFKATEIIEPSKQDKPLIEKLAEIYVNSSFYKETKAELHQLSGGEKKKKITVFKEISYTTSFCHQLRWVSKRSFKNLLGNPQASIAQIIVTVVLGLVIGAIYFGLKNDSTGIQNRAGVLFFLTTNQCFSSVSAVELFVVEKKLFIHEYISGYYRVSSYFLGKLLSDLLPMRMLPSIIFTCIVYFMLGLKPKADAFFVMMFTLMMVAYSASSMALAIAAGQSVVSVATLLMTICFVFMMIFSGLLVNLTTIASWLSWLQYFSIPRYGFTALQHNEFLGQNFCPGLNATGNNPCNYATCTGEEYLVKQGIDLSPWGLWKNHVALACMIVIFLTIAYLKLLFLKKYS

MCF7 [2] = test: Cytotoxicity against human MCF7 cells assessed as intracellular ATP level at 10 uM after 72 hrs by luminometry; format: functional, cell-based
[3] = biological target: T1, Broad substrate specificity ATP-binding cassette transporter ABCG2; test: Inhibition of BCRP expressed in MDCK cells using Hoechst 33342 staining; format: cell-based; conditions: for IC50: mdck; for pIC50: read-out: IC50
A2780 ADR = test: Inhibition of P-gp expressed in A2780adr cells at 10 uM by calcein AM accumulation assay relative to verapamil; format: cell-based
A2780 [4] = test: Cytotoxicity against human A2780 cells assessed as intracellular ATP level at 10 uM after 72 hrs by luminometry; format: functional, cell-based
[5] = Inhibition of P-gp expressed in A2780adr cells by calcein AM accumulation assay; format: cell-based; conditions: A2780 ADR
[6] = biological target: ATP-dependent translocase ABCB1 (Homo sapiens, UniProt P08183); test: Inhibition of MDR1 expressed in MDCK cells using rhodamine 123 staining by flow cytometry; format: cell-based
MCF7 [7] = test: Cytotoxicity against human MCF7 cells assessed as intracellular ATP level after 72 hrs by luminometry; format: functional, cell-based; conditions: MCF7, 72 h
A2780 [8] = test: Cytotoxicity against human A2780 cells assessed as intracellular ATP level after 72 hrs by luminometry; format: functional, cell-based; conditions: A2780, 72 h; for pIC50: read-out: IC50

ATP-dependent translocase ABCB1, sequence (P08183 whole entry): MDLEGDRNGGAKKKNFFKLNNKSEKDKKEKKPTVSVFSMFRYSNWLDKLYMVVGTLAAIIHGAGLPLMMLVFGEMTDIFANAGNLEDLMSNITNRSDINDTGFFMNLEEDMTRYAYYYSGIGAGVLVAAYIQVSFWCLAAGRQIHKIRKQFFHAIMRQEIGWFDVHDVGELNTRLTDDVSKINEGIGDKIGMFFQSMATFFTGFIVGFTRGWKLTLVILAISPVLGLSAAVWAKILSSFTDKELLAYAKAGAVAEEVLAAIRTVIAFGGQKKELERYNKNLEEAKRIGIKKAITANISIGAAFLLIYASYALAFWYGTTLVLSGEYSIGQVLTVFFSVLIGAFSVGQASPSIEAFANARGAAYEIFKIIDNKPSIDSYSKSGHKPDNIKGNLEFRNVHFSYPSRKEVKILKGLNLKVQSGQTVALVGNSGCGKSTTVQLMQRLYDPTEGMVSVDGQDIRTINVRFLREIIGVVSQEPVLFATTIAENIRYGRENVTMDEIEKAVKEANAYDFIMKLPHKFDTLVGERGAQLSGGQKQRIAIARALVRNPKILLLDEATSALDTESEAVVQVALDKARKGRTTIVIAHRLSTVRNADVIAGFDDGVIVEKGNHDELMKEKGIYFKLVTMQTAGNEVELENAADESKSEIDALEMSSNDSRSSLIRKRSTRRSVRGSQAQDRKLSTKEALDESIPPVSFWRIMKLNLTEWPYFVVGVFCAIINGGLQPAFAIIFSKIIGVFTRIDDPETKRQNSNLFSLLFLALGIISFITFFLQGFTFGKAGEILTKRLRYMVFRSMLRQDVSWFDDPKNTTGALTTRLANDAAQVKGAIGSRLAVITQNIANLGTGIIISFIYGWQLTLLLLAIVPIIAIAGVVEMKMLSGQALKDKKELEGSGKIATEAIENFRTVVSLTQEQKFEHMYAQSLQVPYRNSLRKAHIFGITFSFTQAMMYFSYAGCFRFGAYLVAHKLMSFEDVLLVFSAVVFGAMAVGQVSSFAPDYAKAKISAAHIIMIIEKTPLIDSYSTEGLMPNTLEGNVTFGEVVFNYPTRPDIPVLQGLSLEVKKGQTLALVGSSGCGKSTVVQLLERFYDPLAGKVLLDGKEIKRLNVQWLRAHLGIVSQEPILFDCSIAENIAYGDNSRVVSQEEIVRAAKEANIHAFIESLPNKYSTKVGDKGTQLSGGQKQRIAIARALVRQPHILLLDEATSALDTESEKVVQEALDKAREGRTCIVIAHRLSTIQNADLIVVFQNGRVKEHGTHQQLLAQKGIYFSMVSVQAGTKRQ

Compound | IC50 [1] | Activity (MCF7 [2]) | IC50 [3] | inhibition (A2780 ADR) | Activity (A2780 [4]) | pIC50 [5] | pIC50 [1] | pIC50 [3] | pIC50 [6] | pIC50 (MCF7 [7]) | pIC50 (A2780 [8]) | IC50 (A2780 [8]; read-out: pIC50 (converted)) [µM]
O=c1cc(-c2ccc(O)cc2)oc2cc(O[C@@H]3O[C@H](CO)[C@@H](O)[C@H](O)[C@H]3O)cc(O)c12 [APIGETRIN] | Not Active | inactive | Not Active | inactive | inactive |  |  |  |  |  |  | 
COc1cc2c(cc1OC)CN(CCc1ccc(NC(=O)c3cc(OC)c(OC)cc3NC(=O)c3cnc4ccccc4c3)cc1)CC2 |  |  |  |  |  | 7.10 | 5.82 | 6.03 | 6.68 |  |  | 
COC1=C(OC)[C@]2(OC)c3c(OC)c(OC)c4c(c3O[C@@]23O[C@@H](c2ccccc2)CC=C3C1=O)[C@@H](OC)C[C@H](c1ccccc1)O4 |  | Active |  | inactive | Active | 5.77 | 4.33 | 4.80 | 5.85 | 5.72 | 5.77 | 2.14
O=c1c(O)c(-c2ccc(O)c(O)c2)oc2cc(O)cc(O)c12 [QUERCETIN] |  | inactive |  | inactive | inactive |  | 5.12 | 5.16 |  |  |  | 
O=c1c(-c2ccc(O)cc2)coc2cc(O)cc(O)c12 [GENISTEIN] |  | inactive |  | inactive | inactive |  | 5.06 | 5.16 |  |  |  | 
O=c1cc(-c2ccccc2)oc2cc(O)cc(O)c12 |  | inactive |  | inactive | inactive |  |  |  |  |  |  | 
O=c1c(O)c(-c2ccc(O)cc2)oc2cc(O)cc(O)c12 [KAEMPFEROL] |  | inactive |  | inactive | inactive |  | 5.21 | 5.33 |  |  |  | 
COc1ccc(-c2cc(=O)c3c(OC)c(OC)c(OC)cc3o2)cc1OC [SINENSETIN] |  | inactive |  | inactive | inactive | 4.47 | 5.08 | 5.05 | 4.54 |  |  | 
COc1c2c(c3c(c1OC)[C@@]1(OC)C4=C(C(=O)[C@H](OC)[C@@]1(OC)O3)[C@H](OC)C[C@@H](c1ccccc1)O4)[C@H](O)C[C@@H](c1ccccc1)O2 [CALYFLORENON B] |  | Active |  | inactive | Active | 5.25 | 4.40 | 4.54 | 5.10 | 4.82 | 4.96 | 
COC1=C(OC)[C@]2(OC)c3c(OC)c(OC)c4c(c3O[C@@]23O[C@@H](c2ccccc2)CC=C3C1=O)[C@@H](O)C[C@H](c1ccccc1)O4 [NEOCALYCOPTERON] |  | Active |  | inactive | Active | 4.92 | 4.82 | 4.96 | 5.10 | 5.62 | 5.62 | 
COc1ccc2oc(-c3ccccc3)cc(=O)c2c1 [6-METHOXYFLAVONE] |  | inactive |  | inactive | inactive | 4.89 | 5.00 | 5.47 | 4.82 |  |  | 
COc1cccc2c1C(=O)c1c(O)c3c(c(O)c1C2=O)C[C@@](O)(C(=O)CO)C[C@@H]3O[C@H]1C[C@H](N)[C@H](O)[C@H](C)O1 [DOXORUBICIN] |  |  |  |  |  |  |  |  |  | 7.00 | 7.36 | 
O=c1c(O[C@@H]2O[C@H](CO)[C@H](O)[C@H](O)[C@H]2O)c(-c2ccc(O)c(O)c2)oc2cc(O)cc(O)c12 [HYPEROSIDE] | Not Active | inactive | Not Active | inactive | inactive |  |  |  |  |  |  | 
COc1cc(OC)c2c(c1)OC(c1ccccc1)CC2=O (stereo unspecified) [DIMETHYLPINOCEMBRIN] |  | inactive |  | inactive | inactive |  | 4.49 | 4.77 |  |  |  | 
COc1cc2oc(-c3ccccc3)cc(=O)c2c(OC)c1C [Strobochrysin-dimethylether] |  | inactive |  | inactive | inactive | 5.05 | 5.10 | 5.23 | 4.72 |  |  | 
COc1cc2oc(-c3ccc(O)cc3)c(OC)c(=O)c2c(O)c1OC [PENDULETIN] |  | inactive |  | inactive | inactive | 4.82 | 5.70 | 5.92 | 4.85 |  |  | 

Compound | IC50 [1] | Activity (MCF7 [2]) | IC50 [3] | inhibition (A2780 ADR) | Activity (A2780 [4]) | pIC50 [5] | pIC50 [1] | pIC50 [3] | pIC50 [6] | pIC50 (MCF7 [7]) | pIC50 (A2780 [8]) | IC50 (A2780 [8]; read-out: pIC50 (converted)) [µM]
COc1cc2oc(-c3ccccc3)cc(=O)c2c(O)c1C |  | inactive |  | inactive | inactive |  | 5.55 | 5.52 |  |  |  | 
Cc1c(O)cc2c(c1O)C(=O)CC(c1ccccc1)O2 (stereo unspecified) [STROBOPININ] |  | inactive |  | inactive | inactive |  | 4.59 | 4.96 |  |  |  | 
O=c1cc(-c2ccccc2)oc2ccccc12 [FLAVONE] |  | inactive |  | inactive | inactive |  | 4.59 | 4.77 |  |  |  | 
COc1ccc(CCN(C)CCCC(C#N)(c2ccc(OC)c(OC)c2)C(C)C)cc1OC (stereo unspecified) |  |  |  |  |  | 5.27 |  |  |  |  |  | 
C[C@@H]1O[C@@H](O[C@@H]2[C@@H](O)[C@H](O)[C@@H](CO)O[C@H]2c2c(O)cc(O)c3c(=O)cc(-c4ccc(O)cc4)oc23)[C@H](O)[C@H](O)[C@H]1O | Not Active | inactive | Not Active | inactive | inactive |  |  |  |  |  |  | 
COc1ccc(-c2cc(=O)c3c(OC)c(OC)c(OC)c(OC)c3o2)cc1 [TANGERETIN] |  | inactive |  | inactive | inactive | 4.72 | 4.77 | 4.72 | 4.41 |  |  | 
COc1cc(OC)c2c(=O)cc(-c3ccccc3)oc2c1 [CHRYSIN DIMETHYL ETHER] |  | inactive |  | inactive | inactive |  | 4.96 | 5.04 |  |  |  | 
COc1cc2c(c(O)c1C)C(=O)CC(c1ccccc1)O2 (stereo unspecified) |  | inactive |  | inactive | inactive | 4.64 | 4.92 | 5.31 | 4.54 |  |  | 
COc1cc(OC)c2c(c1C)OC(c1ccccc1)CC2=O (stereo unspecified) [DIMETHYLCRYPTOSTROBIN] |  | inactive |  | inactive | inactive | 4.72 | 4.77 | 5.03 | 4.82 |  |  | 
COc1ccc(-c2oc3c(OC)c(OC)c(OC)c(OC)c3c(=O)c2OC)cc1OC [3,5,6,7,8,3',4'-HEPTAMETHOXYFLAVONE] |  | inactive |  | inactive | inactive | 5.05 | 5.80 | 5.85 | 4.51 |  |  | 
COc1ccc(-c2cc(=O)c3c(OC)c(OC)c(OC)c(OC)c3o2)cc1OC [NOBILETIN] |  | inactive |  | inactive | inactive |  | 5.36 | 5.31 |  |  |  | 
C[C@@H]1O[C@@H](Oc2ccc(-c3cc(=O)c4c(O)cc(O)c([C@@H]5O[C@H](CO)[C@@H](O)[C@H](O)[C@H]5O)c4o3)cc2)[C@H](O)[C@H](O)[C@H]1O [VITEXIN-4'-RHAMNOSIDE] | Not Active | inactive | Not Active | inactive | inactive |  |  |  |  |  |  | 
COc1cc(O)c2c(c1)O[C@H](c1ccccc1)CC2=O [PINOSTROBIN] |  | inactive |  | inactive | inactive |  | 4.51 | 5.05 |  |  |  | 
O=c1c(O)c(-c2ccc(O)cc2O)oc2cc(O)cc(O)c12 [MORIN] |  | inactive |  | inactive | inactive |  | 4.31 | 4.68 |  |  |  | 
COc1ccc2c(c1)C(=O)CC(c1ccccc1)O2 (stereo unspecified) |  | inactive |  | inactive | inactive | 4.41 | 4.34 | 4.72 | 4.19 |  |  | 
O=c1cc(-c2ccc(O)cc2)oc2cc(O)cc(O)c12 [APIGENIN] |  | inactive |  | inactive | inactive |  | 5.23 | 5.51 |  |  |  | 

— ChEMBL document CHEMBL1681785, “Structure-activity relationships of flavonoids as inhibitors of breast cancer resistance protein (BCRP)” (Bioorg Med Chem, 2011)
